Tests used:
Format in all cases: cell-based
[1] = biological target: T1, human TLR8 (Homo sapiens, UniProt Q9NR97); assay: TLR8 inhibition reporter assay (HEK-Blue cells, SEAP reporter); conditions: HEK-Blue cells overexpressing human TLR8; stimulated with R848 15.9 μM; SEAP read after 22 hour; dose range 0.05 nM-50 μM
T1 construct: host or cells: HEK-Blue cells
T1 sequence (Q9NR97 27-1041): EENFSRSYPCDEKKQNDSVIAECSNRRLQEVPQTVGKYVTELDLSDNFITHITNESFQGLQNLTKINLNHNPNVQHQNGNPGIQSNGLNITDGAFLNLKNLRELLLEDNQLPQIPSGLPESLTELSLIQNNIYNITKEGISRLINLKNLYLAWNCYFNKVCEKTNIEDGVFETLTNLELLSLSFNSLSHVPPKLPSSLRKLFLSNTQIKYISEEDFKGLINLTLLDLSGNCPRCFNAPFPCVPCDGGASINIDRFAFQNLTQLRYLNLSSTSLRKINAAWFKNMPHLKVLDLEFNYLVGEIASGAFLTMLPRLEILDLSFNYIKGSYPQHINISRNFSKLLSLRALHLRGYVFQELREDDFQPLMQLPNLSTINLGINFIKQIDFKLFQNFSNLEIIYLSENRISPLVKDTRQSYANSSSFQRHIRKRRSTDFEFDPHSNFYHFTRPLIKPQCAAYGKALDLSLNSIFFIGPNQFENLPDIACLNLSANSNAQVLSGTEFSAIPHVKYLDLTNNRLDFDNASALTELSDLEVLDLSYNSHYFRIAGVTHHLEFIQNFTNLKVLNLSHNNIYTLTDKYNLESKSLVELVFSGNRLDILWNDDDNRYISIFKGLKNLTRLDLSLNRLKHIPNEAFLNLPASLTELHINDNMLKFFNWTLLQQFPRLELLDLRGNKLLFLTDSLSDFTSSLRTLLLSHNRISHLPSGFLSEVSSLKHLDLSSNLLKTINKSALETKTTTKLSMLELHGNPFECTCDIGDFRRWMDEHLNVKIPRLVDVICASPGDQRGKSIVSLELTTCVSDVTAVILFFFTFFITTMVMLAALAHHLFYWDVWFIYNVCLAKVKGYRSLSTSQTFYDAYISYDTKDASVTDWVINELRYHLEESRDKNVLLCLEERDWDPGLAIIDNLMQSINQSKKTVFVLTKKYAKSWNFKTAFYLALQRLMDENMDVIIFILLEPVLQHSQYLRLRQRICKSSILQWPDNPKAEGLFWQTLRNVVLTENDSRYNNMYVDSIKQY
Description: (§1) HEK-Blue™-cells (Invivogen) overexpressing human TLR7, TLR8 or TLR9 receptors were used for screening inhibitors of these receptors using an inducible SEAP (secreted embryonic alkaline phosphatase) reporter gene under the control of the IFN-β minimal promoter fused to five NF-κB and AP-1-binding sites. Briefly, cells are seeded into Greiner 384 well plates (15000 cells per well for TLR7, 20,000 for TLR8 and 25,000 for TLR9) and then treated with test compounds in DMSO to yield a final dose response concentration range of 0.05 nM-50 μM. After a 30 minute compound pre-treatment at room temperature, the cells are then stimulated with a TLR7 ligand (gardiquimod at a final concentration of 7.5 μM), TLR8 ligand (R848 at a final concentration of 15.9 μM) or TLR9 ligand (ODN2006 at a final concentration of 5 nM) to activate NF-κB and AP-1 which induce the production of SEAP. After a 22 hour incubation at 37° C., 5% CO2, SEAP levels are determined with the addition of HEK-Blue™ Detection reagent (Invivogen), a cell culture medium that allows for detection of SEAP, according to manufacturer's specifications. The percent inhibition is determined as the % reduction in the HEK-Blue signal present in wells treated with agonist plus DMSO alone compared to wells treated with a known inhibitor.

[2] = biological target: T2, human TLR7 (Homo sapiens, UniProt Q9NYK1); assay: TLR7 inhibition reporter assay (HEK-Blue cells, SEAP reporter); conditions: HEK-Blue cells overexpressing human TLR7; stimulated with gardiquimod 7.5 μM; SEAP read after 22 hour; dose range 0.05 nM-50 μM
T2 construct: host or cells: HEK-Blue cells
T2 sequence (Q9NYK1 27-1049): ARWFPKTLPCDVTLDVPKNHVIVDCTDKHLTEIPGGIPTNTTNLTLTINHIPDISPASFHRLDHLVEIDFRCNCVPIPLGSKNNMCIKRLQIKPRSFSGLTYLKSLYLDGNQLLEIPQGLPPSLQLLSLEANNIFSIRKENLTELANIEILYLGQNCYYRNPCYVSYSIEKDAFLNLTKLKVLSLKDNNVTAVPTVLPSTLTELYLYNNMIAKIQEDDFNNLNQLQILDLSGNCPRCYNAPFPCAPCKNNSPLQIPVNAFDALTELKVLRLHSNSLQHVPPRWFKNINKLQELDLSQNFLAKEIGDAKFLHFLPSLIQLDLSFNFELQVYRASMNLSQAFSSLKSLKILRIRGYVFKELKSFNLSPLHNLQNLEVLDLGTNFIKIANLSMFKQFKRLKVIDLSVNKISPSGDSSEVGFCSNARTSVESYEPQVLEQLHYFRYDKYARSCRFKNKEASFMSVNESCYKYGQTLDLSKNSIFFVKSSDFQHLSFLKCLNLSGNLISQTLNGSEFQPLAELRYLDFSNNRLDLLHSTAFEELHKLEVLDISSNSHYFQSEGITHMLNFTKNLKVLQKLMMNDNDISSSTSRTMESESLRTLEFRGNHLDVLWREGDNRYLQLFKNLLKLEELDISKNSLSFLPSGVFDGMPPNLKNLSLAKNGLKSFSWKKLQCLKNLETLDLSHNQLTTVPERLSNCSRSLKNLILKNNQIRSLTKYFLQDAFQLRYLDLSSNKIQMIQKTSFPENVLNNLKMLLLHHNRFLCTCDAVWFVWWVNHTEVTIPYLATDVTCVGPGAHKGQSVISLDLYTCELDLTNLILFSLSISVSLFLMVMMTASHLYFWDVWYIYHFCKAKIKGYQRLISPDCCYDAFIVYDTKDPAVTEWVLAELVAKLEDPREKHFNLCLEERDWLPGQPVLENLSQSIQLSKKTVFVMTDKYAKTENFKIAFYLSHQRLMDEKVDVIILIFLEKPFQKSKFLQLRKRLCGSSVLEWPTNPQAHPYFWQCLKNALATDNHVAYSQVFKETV
Description: as §1

[3] = biological target: T3, human TLR9 (Homo sapiens, UniProt Q9NR96); assay: TLR9 inhibition reporter assay (HEK-Blue cells, SEAP reporter); conditions: HEK-Blue cells overexpressing human TLR9; stimulated with ODN2006 5 nM; SEAP read after 22 hour; dose range 0.05 nM-50 μM
T3 construct: host or cells: HEK-Blue cells
T3 sequence (Q9NR96 26-1032): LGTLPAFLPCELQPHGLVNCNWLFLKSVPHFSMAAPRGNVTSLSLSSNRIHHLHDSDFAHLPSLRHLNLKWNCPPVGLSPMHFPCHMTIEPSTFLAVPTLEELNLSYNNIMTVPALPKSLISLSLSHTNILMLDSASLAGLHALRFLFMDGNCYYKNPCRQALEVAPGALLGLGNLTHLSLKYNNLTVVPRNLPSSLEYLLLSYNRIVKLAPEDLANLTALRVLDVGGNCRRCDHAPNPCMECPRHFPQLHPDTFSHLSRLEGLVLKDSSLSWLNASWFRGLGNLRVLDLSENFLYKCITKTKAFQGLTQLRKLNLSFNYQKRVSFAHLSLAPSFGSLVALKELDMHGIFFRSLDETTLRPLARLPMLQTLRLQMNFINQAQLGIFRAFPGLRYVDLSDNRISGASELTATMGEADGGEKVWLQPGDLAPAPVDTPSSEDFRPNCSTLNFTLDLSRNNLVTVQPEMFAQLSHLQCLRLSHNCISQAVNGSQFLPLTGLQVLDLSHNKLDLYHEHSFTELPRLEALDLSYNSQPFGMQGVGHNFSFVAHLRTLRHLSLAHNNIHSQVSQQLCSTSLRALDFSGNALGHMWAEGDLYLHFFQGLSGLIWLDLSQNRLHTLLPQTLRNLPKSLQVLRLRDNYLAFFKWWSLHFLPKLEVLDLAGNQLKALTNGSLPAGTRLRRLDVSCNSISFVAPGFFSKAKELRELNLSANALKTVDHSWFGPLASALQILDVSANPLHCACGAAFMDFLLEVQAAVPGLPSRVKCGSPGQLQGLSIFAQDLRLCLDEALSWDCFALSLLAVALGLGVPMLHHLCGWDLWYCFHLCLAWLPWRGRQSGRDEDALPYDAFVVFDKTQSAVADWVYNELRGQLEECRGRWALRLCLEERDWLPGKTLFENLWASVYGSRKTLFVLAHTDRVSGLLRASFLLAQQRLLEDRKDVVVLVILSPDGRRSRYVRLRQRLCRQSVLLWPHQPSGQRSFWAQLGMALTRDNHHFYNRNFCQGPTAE
Description: as §1

Question: How did the IC50 [1] turn out when `CC(C)N1CCN(c2ccc(-c3ccc4c(c3)cc(-c3ccccc3)c(=O)n4C)cc2)CC1` [Example 58, 1-methyl-3-phenyl-6-{4-[4-(propan-2-yl)piperazin-1-yl]phenyl}-1,2-dihydroquinolin-2-one] was run?
Answer: 1390 nM

Question: What about the IC50 [2] of the same molecule?
Answer: 32600 nM

Question: What about the IC50 [3] of the same molecule?
Answer: 538 nM

Question: What does the source list for `CC(C)N1CCN(c2ccc(-c3ccc4[nH]c(=O)c(-c5ccc(N6CC[C@@H](O)C6)cc5)cc4c3)cc2)CC1` [Example 61, 3-{4-[(3R)-3-hydroxypyrrolidin-1-yl]phenyl}-6-{4-[4-(propan-2-yl)piperazin-1-yl]phenyl}-1,2-dihydroquinolin-2-one]?
Answer: IC50 [1]: ≥ 50000 nM; IC50 [2]: ≥ 50000 nM; IC50 [3]: 1640 nM

Question: With `CCc1c(-c2ccc(OC)c(OC)c2)c(=O)[nH]c2ccc(-c3ccc(N4CCN(C(C)C)CC4)cc3)cc12` [Example 95, 3-(3,4-dimethoxyphenyl)-4-ethyl-6-{4-[4-(propan-2-yl)piperazin-1-yl]phenyl}-1,2-dihydroquinolin-2-one] as the molecule, how does the IC50 [1] read?
Answer: 731 nM

Question: And the IC50 [2]?
Answer: 5890 nM

Question: And the IC50 [3]?
Answer: 691 nM

Question: Which results are given for `CCCC(=O)Nc1ccc(-c2cc3cc(-c4ccc(N5CCN(C(C)C)CC5)cc4)ccc3[nH]c2=O)cc1` [Example 21, N-[4-(2-oxo-6-{4-[4-(propan-2-yl)piperazin-1-yl]phenyl}-1,2-dihydroquinolin-3-yl)phenyl]butanamide]?
Answer: IC50 [1]: ≥ 50000 nM; IC50 [2]: ≥ 50000 nM; IC50 [3]: 214 nM

Question: Which results are given for `CC(C)N1CCN(c2ccc(-c3ccc4[nH]c(=O)c(-c5cc(F)c(F)cc5F)cc4c3)cc2)CC1` [Example 10, 6-{4-[4-(propan-2-yl)piperazin-1-yl]phenyl}-3-(2,4,5-trifluorophenyl)-1,2-dihydroquinolin-2-one]?
Answer: IC50 [1]: ≥ 50000 nM; IC50 [2]: ≥ 50000 nM; IC50 [3]: 118 nM

Question: What does the source list for `CC(C)N1CCN(c2ccc(-c3ccc4c(c3)cc(-c3ccc(S(C)(=O)=O)cc3)c(=O)n4C)cc2)CC1` [Example 27, 3-(4-methanesulfonylphenyl)-1-methyl-6-{4-[4-(propan-2-yl)piperazin-1-yl]phenyl}-1,2-dihydroquinolin-2-one]?
Answer: IC50 [1]: 1040 nM; IC50 [2]: 2500 nM; IC50 [3]: 233 nM

Question: With `Cn1c(=O)c(-c2ccc(S(C)(=O)=O)cc2)cc2cc(-c3ccc(C4CCN(C5COC5)CC4)cc3)ccc21` [Example 87, 3-(4-methanesulfonylphenyl)-1-methyl-6-{4-[1-(oxetan-3-yl)piperidin-4-yl]phenyl}-1,2-dihydroquinolin-2-one] as the molecule, how does the IC50 [1] read?
Answer: 30000 nM

Question: And the IC50 [2]?
Answer: ≥ 50000 nM

Question: And the IC50 [3]?
Answer: 416 nM

Question: What does the source list for `CC(C)N1CCN(c2ccc(-c3ccc4[nH]c(=O)c(-c5ccccn5)cc4c3)cc2)CC1` [Example 6, 6-{4-[4-(propan-2-yl)piperazin-1-yl]phenyl}-3-(pyridin-2-yl)-1,2-dihydroquinolin-2-one]?
Answer: IC50 [1]: ≥ 50000 nM; IC50 [2]: 3830 nM; IC50 [3]: 79 nM

Question: For `CCC(=O)Nc1ccc(-c2cc3cc(-c4ccc(N5CCN(C(C)C)CC5)cc4)ccc3[nH]c2=O)cc1` [Example 52, N-[4-(2-oxo-6-{4-[4-(propan-2-yl)piperazin-1-yl]phenyl}-1,2-dihydroquinolin-3-yl)phenyl]propanamide], which IC50 [1] is on record?
Answer: ≥ 50000 nM

Question: What about the IC50 [2] of the same molecule?
Answer: 15100 nM

Question: And the IC50 [3]?
Answer: 243 nM

Question: Which IC50 [1] does the source give for `CC(C)N1CCN(c2ccc(-c3ccc4[nH]c(=O)c(-c5ccc(C(=O)N(C)C)cc5)cc4c3)cc2)CC1` [Example 60, N,N-dimethyl-4-(2-oxo-6-{4-[4-(propan-2-yl)piperazin-1-yl]phenyl}-1,2-dihydroquinolin-3-yl)benzamide] here?
Answer: ≥ 50000 nM

Question: What about the IC50 [2] of the same molecule?
Answer: ≥ 50000 nM

Question: And the IC50 [3]?
Answer: 736 nM

Question: With `CCc1c(-c2ccc(S(C)(=O)=O)cc2)c(=O)[nH]c2ccc(C3CCN(C4CCN(C(C)C)CC4)CC3)cc12` [Example 66, 4-ethyl-3-(4-methanesulfonylphenyl)-6-[1′-(propan-2-yl)-[1,4′-bipiperidine]-4-yl]-1,2-dihydroquinolin-2-one] as the molecule, how does the IC50 [1] read?
Answer: ≥ 50000 nM

Question: And the IC50 [2]?
Answer: 9970 nM

Question: What about the IC50 [3] of the same molecule?
Answer: 57 nM

Question: `CC(C)N1CCN(c2ccc(-c3ccc4[nH]c(=O)c(-c5ccccc5C(F)(F)F)cc4c3)cc2)CC1` [Example 33, 6-{4-[4-(propan-2-yl)piperazin-1-yl]phenyl}-3-[2-(trifluoromethyl)phenyl]-1,2-dihydroquinolin-2-one] was tested. Which IC50 [1] did it give?
Answer: 4700 nM

Question: And the IC50 [2]?
Answer: 2230 nM

Question: What about the IC50 [3] of the same molecule?
Answer: 300 nM

Source: US20260183275A1, “SUBSTITUTED QUINOLONE COMPOUNDS USEFUL AS INHIBITORS OF TLR9” (Bristol-Myers Squibb Company, priority 2022, published 2026)
